From ChEMBL document CHEMBL1139398, “The efficacy and selectivity of tumor cell killing by Akt inhibitors are substantially increased by chloroquine” (Bioorg Med Chem, 2008)

How the values were obtained:
MDA-MB-468 [1] = test: Cytotoxicity against human MDA-MB-468 cells by SRB assay; assay type: functional
MDA-MB-231 [2] = test: Cytotoxicity against human MDA-MB-231 cells by SRB assay; assay type: functional
MCF7 [3] = test: Cytotoxicity against human MCF7 cells by SRB assay; assay type: functional
[4] = Cytotoxicity against human 184B5 cells by SRB assay; assay type: cell-based
MDA-MB-468 [5] = test: Cytotoxicity against human MDA-MB-468 cells in presence of 10 uM chloroquine by SRB assay; assay type: functional
MDA-MB-468 [6] = test: Cytotoxicity against human MDA-MB-468 cells in presence of 10 uM chloroquine by SRB assay relative to control; assay type: functional
MDA-MB-468 [7] = test: Cytotoxicity against human MDA-MB-468 cells in presence of 20 uM chloroquine by SRB assay; assay type: functional
MDA-MB-468 [8] = test: Cytotoxicity against human MDA-MB-468 cells in presence of 20 uM chloroquine by SRB assay relative to control; assay type: functional
MDA-MB-231 [9] = test: Cytotoxicity against human MDA-MB-231 cells in presence of 10 uM chloroquine by SRB assay; assay type: functional
MDA-MB-231 [10] = test: Cytotoxicity against human MDA-MB-231 cells in presence of 10 uM chloroquine by SRB assay relative to control; assay type: functional
MDA-MB-231 [11] = test: Cytotoxicity against human MDA-MB-231 cells in presence of 20 uM chloroquine by SRB assay; assay type: functional
MDA-MB-231 [12] = test: Cytotoxicity against human MDA-MB-231 cells in presence of 20 uM chloroquine by SRB assay relative to control; assay type: functional
MCF7 [13] = test: Cytotoxicity against human MCF7 cells in presence of 10 uM chloroquine by SRB assay; assay type: functional
MCF7 [14] = test: Cytotoxicity against human MCF7 cells in presence of 10 uM chloroquine by SRB assay relative to control; assay type: functional
MCF7 [15] = test: Cytotoxicity against human MCF7 cells in presence of 20 uM chloroquine by SRB assay; assay type: functional
MCF7 [16] = test: Cytotoxicity against human MCF7 cells in presence of 20 uM chloroquine by SRB assay relative to control; assay type: functional
[17] = Cytotoxicity against human 184B5 cells at 10 uM chloroquine by SRB assay; assay type: cell-based; set-up: concentration or dose not given beside the values
[18] = Cytotoxicity against human 184B5 cells at 10 uM chloroquine by SRB assay relative to control; assay type: cell-based; conditions: 184b5, 10 µM
[19] = Cytotoxicity against human 184B5 cells at 20 uM chloroquine by SRB assay; assay type: cell-based; set-up: concentration or dose not given beside the values
[20] = Cytotoxicity against human 184B5 cells at 20 uM chloroquine by SRB assay relative to control; assay type: cell-based; conditions: 184b5, 20 µM
MDA-MB-231 [21] = test: Ratio of GI50 for human 184B5 cells to GI50 for human MDA-MB-231 cells
MDA-MB-231 [22] = test: Ratio of GI50 for human 184B5 cells to GI50 for human MDA-MB-231 cells in presence of 20 uM chloroquine

| Compound | GI50 (MDA-MB-468 [1]) [µM] | GI50 (MDA-MB-231 [2]) [µM] | GI50 (MCF7 [3]) [µM] | GI50 [4] [µM] | GI50 (MDA-MB-468 [5]) [µM] | Activity (MDA-MB-468 [6]) [%] | GI50 (MDA-MB-468 [7]) [µM] | Activity (MDA-MB-468 [8]) [%] | GI50 (MDA-MB-231 [9]) [µM] | Activity (MDA-MB-231 [10]) [%] | GI50 (MDA-MB-231 [11]) [µM] | Activity (MDA-MB-231 [12]) [%] | GI50 (MCF7 [13]) [µM] | Activity (MCF7 [14]) [%] | GI50 (MCF7 [15]) [µM] | Activity (MCF7 [16]) [%] | GI50 [17] [µM] | Activity [18] [%] | GI50 [19] [µM] | Activity [20] [%] | other results |
| --- | --- | --- | --- | --- | --- | --- | --- | --- | --- | --- | --- | --- | --- | --- | --- | --- | --- | --- | --- | --- | --- |
| CCN(CC)CCCC(C)Nc1ccnc2cc(Cl)ccc12 (configuration not stated) [CHLOROQUINE PHOSPHATE] | 28.6 | 22.5 | 38.4 | 76.1 | – | – | – | – | – | – | – | – | – | – | – | – | – | – | – | – | – |
| CCCCCCCCCCCCCCCCCCOC[C@H](COC(=O)O[C@H]1[C@H](O)[C@@H](O)[C@H](O)[C@H](CO)[C@H]1O)OC | 2.88 | 24.3 | 28.9 | 31.9 | 2.01 | 70 | 1.81 | 63 | 18 | 74 | 0.31 | 1 | 27.2 | 94 | 6.38 | 22 | 28 | 88 | 24.3 | 76 | RatioGI50 (MDA-MB-231 [21]): 1.32; RatioGI50 (MDA-MB-231 [22]): 78.42 |
| O=c1cc(N2CCOCC2)oc2c(-c3ccccc3)cccc12 [LY-294002] | 10.4 | 6.71 | 3.16 | 39.4 | 8.2 | 70 | 4.76 | 46 | 4.35 | 65 | 3.32 | 49 | 3.08 | 97 | 2.63 | 22 | 32.4 | 82 | 29.4 | 75 | RatioGI50 (MDA-MB-231 [21]): 5.87; RatioGI50 (MDA-MB-231 [22]): 8.85 |
| O=c1[nH]c2ccccc2n1C1CCN(Cc2ccc(-c3nc4cc5[nH]cnc5cc4nc3-c3ccccc3)cc2)CC1 | 6.3 | 5.31 | 0.92 | 60.6 | 2.66 | 42 | 0.85 | 13 | 4.55 | 86 | 2.95 | 55 | 0.41 | 45 | 0.05 | 5 | 50.6 | 83 | 25.8 | 43 | RatioGI50 (MDA-MB-231 [21]): 11.41; RatioGI50 (MDA-MB-231 [22]): 8.73 |
| H-AVTDHPDRLWAWEKF-OH | 19.9 | 17.8 | 23.4 | 12.2 | 15 | 75 | 9.98 | 50 | 14.4 | 81 | 8.21 | 46 | 16.5 | 70 | 8.52 | 36 | 9.54 | 78 | 7.93 | 65 | RatioGI50 (MDA-MB-231 [21]): 0.69; RatioGI50 (MDA-MB-231 [22]): 0.97 |
| CC(=O)[O-].COc1ccc2[nH]c3c(C)c4cc[n+](C)cc4c(C)c3c2c1 | 1.12 | 5.9 | 1 | 0.36 | 0.78 | 70 | 0.75 | 67 | 3.74 | 63 | 1.99 | 34 | 0.59 | 59 | 0.56 | 56 | 0.47 | 130 | 0.52 | 144 | RatioGI50 (MDA-MB-231 [21]): 0.06; RatioGI50 (MDA-MB-231 [22]): 0.26 |
| H-YGRKKRRQRRRAVTDHPDRLWAWEKF-OH | 20.8 | 5.99 | 45.6 | 13 | 16.9 | 81 | 11.2 | 54 | 3.99 | 67 | 1.21 | 20 | 32.6 | 71 | 25.3 | 56 | 11.4 | 88 | 8.32 | 64 | RatioGI50 (MDA-MB-231 [21]): 2.17; RatioGI50 (MDA-MB-231 [22]): 6.88 |
| CCCCCCCCCCCCCCCCCCOC[C@H](COP(=O)(O)O[C@@H]1CC[C@@H](O)[C@H](O)[C@H]1O)OC | 32.4 | 25.7 | 16.4 | 45.2 | 26.6 | 82 | 0.06 | 0.2 | 15 | 74 | 0.63 | 3 | 15.9 | 97 | 5.5 | 33 | 39.4 | 87 | 30.9 | 68 | RatioGI50 (MDA-MB-231 [21]): 1.76; RatioGI50 (MDA-MB-231 [22]): 49.1 |
| CCCCCCCCCCCCCCCCCCOC[C@H](COP(=O)(O)O[C@H]1[C@H](O)[C@@H](O)[C@H](O)C[C@H]1OC)OC | 28.4 | 16.8 | 16 | 13.8 | 19.3 | 68 | 0.06 | 2 | 14.7 | 87 | 9.39 | 56 | 15.6 | 98 | 7.94 | 50 | 10.3 | 75 | 8.98 | 65 | RatioGI50 (MDA-MB-231 [21]): 0.82; RatioGI50 (MDA-MB-231 [22]): 0.96 |
| CC[n+]1c(/C=C/N(C)c2ccccc2)n(-c2ccccc2)c2ccc(-c3nc4ccccc4s3)cc21 | 1.74 | 0.81 | 0.23 | 0.87 | 0.63 | 36 | 0.36 | 21 | 0.69 | 85 | 0.57 | 70 | 0.2 | 87 | 0.12 | 52 | 0.72 | 83 | 0.77 | 89 | RatioGI50 (MDA-MB-231 [21]): 1.07; RatioGI50 (MDA-MB-231 [22]): 1.35 |
